From patent US5041567A, “Antibacterial monic acid derivatives” (Beecham Group plc, priority 1982, dated 1991)
≈ marks a conversion by molar mass, not a printed value. Read-outs that look alike come from different tables or passages of the source.

Legend:
S. dublin S7 = experiment: MIC against veterinary bacteria in vitro; settings: Salmonella enterica, S7, 18 h
Method: (§1) The activity of the compounds of the Examples against various veterinarily important bacteria, was assayed in vitro using two-fold serial dilutions in Diagnostic Sensitivity Test Agar inoculated with 10^4 organisms.

M. suipneumoniae NB12 = experiment: MIC against mycoplasma in vitro; type: cell-based; settings: Mesomycoplasma hyopneumoniae, 144 h; M. suipneumoniae NB12; Friis broth, 0.9% agarose, 6 days, 37° C.; read-out: MIC
[1] = system: M. bovigenitalium ATCC 14173; experiment: MIC against mycoplasma in vitro; type: cell-based; settings: 144 h
E. coli NCTC 10418 [2] = experiment: MIC against human bacteria in vitro; type: cell-based; settings: Escherichia coli
M. suipneumoniae Str. 11 = experiment: MIC against mycoplasma in vitro; type: cell-based; settings: Mesomycoplasma hyopneumoniae, 144 h; M. suipneumoniae Str. 11; 6 days, 37° C.; read-out: MIC
Strep. agalactiae 2788-B = experiment: MIC against human bacteria in vitro; type: cell-based; settings: Streptococcus agalactiae; Strep. agalactiae 2788-B; 5% chocolated horse blood agar, 18 hours; read-out: MIC
Past. multocida PA1 = experiment: MIC against veterinary bacteria in vitro; settings: Pasteurella multocida, PA1, 18 h
Method: as §1

[3] = system: Haemophilus influenzae Wy21; experiment: MIC against human bacteria in vitro; type: cell-based; settings: Haemophilus influenzae Wy21; 5% chocolated horse blood agar, 18 hours; read-out: MIC
[4] = system: Haemophilus influenzae Q1; experiment: MIC against human bacteria in vitro; type: cell-based; settings: Haemophilus influenzae Q1; 5% chocolated horse blood agar, 18 hours; read-out: MIC
[5] = system: Ps. aeruginosa NCTC 10662; experiment: MIC against human bacteria in vitro; type: cell-based; settings: Pseudomonas aeruginosa, NCTC10662; Ps. aeruginosa NCTC 10662; 5% chocolated horse blood agar, 18 hours; read-out: MIC
[6] = system: Erysipelothrix rhusiopathiae NCTC 8163; experiment: MIC against veterinary bacteria in vitro; settings: Erysipelothrix rhusiopathiae, NCTC8163, 18 h
Method: as §1

Bord. bronchiseptica B09 = experiment: MIC against veterinary bacteria in vitro; settings: Bordetella bronchiseptica, B09, 18 h
Method: as §1

Strep. dysgalactiae SPD1 = experiment: MIC against veterinary bacteria in vitro; settings: Streptococcus dysgalactiae, SPD1, 18 h
Method: as §1

[7] = system: M. suipneumoniae PW/C/210; experiment: MIC against mycoplasma in vitro; type: cell-based; settings: Mesomycoplasma hyopneumoniae, 144 h
M. bovis NCTC 10131 = experiment: microbe, parasite or virus in culture; type: cell-based; settings: NCTC10131, 144 h
M. gallisepticum S6 = experiment: MIC against mycoplasma in vitro; type: cell-based; settings: Mycoplasmoides gallisepticum
[8] = system: Corynebacterium xerosis 9755; experiment: MIC against human bacteria in vitro; type: cell-based; settings: Corynebacterium xerosis 9755; 5% chocolated horse blood agar, 18 hours; read-out: MIC
Staph. aureus Oxford = experiment: MIC against veterinary bacteria in vitro; settings: Staphylococcus aureus, 18 h
Method: as §1

[9] = system: Corynebacterium pyogenes CY1; experiment: MIC against veterinary bacteria in vitro; settings: CY1, 18 h
Method: as §1

E. coli NCTC 10418 [10] = experiment: MIC against veterinary bacteria in vitro; settings: Escherichia coli, NCTC10418, 18 h
Method: as §1

M. suipneumoniae UCD 1 = experiment: MIC against mycoplasma in vitro; type: cell-based; settings: Mesomycoplasma hyopneumoniae, UCD1, 144 h; M. suipneumoniae UCD 1; 6 days, 37° C.; read-out: MIC
Strep. agalactiae SPA1 = experiment: MIC against veterinary bacteria in vitro; settings: Streptococcus agalactiae, SPA1, 18 h
Method: as §1

Past. haemolytica PA5 = experiment: MIC against veterinary bacteria in vitro; settings: Mannheimia haemolytica, PA5, 18 h
Method: as §1

[11] = NCTC10418, E. coli NCTC 10418, agar with 5% chocolated horse blood, 18 hours, 37° C., read-out: MIC
[12] = M. bovigenitalium ATCC 14173, 6 days, 37° C., read-out: MIC
[13] = M. suipneumoniae PW/C/210, 6 days, 37° C., read-out: MIC
[14] = 144 h, M. gallisepticum S6, 6 days, 37° C., read-out: MIC

SMILES	MIC (S. dublin S7)	MIC (M. suipneumoniae NB12)	MIC (M. suipneumoniae Str. 11)	MIC (Strep. agalactiae 2788-B)	MIC (Past. multocida PA1)	MIC [3]	MIC [4]	MIC [5]	MIC [6]	MIC (Bord. bronchiseptica B09)	MIC (Strep. dysgalactiae SPD1)	MIC (M. bovis NCTC 10131)	MIC [8]	MIC (Staph. aureus Oxford)	MIC [9]	MIC (E. coli NCTC 10418 [10])	MIC (M. suipneumoniae UCD 1)	MIC (Strep. agalactiae SPA1)	MIC (Past. haemolytica PA5)	MIC [7, 13]	other results
C/C(=C\c1ncc(-c2ccc(C=O)cc2)o1)C[C@@H]1OC[C@H](C[C@@H]2O[C@H]2[C@@H](C)[C@H](C)O)[C@@H](O)[C@H]1O [Example 15, 5-p-Formylphenyl-2-(1-normon-2-yl) oxazole A]	> 80 µg/mL	0.5 µg/mL (≈ 1.06 µM)	0.5 µg/mL (≈ 1.06 µM)	8 µg/mL (≈ 17 µM)	10 µg/mL (≈ 21.2 µM)	4 µg/mL (≈ 8.48 µM)	4 µg/mL (≈ 8.48 µM)	> 128 µg/mL	> 80 µg/mL	20 µg/mL (≈ 42.4 µM)	1.25 µg/mL (≈ 2.65 µM)	0.05 µg/mL (≈ 0.106 µM)	> 128 µg/mL	1.25 µg/mL (≈ 2.65 µM)	> 80 µg/mL	> 80 µg/mL	0.5 µg/mL (≈ 1.06 µM)	1.25 µg/mL (≈ 2.65 µM)	80 µg/mL (≈ 170 µM)		MIC [1]: 0.05 µg/mL (≈ 0.106 µM); MIC (E. coli NCTC 10418 [2]; [11]): > 128 µg/mL; MIC [7]: 0.25 µg/mL (≈ 0.53 µM); MIC (M. gallisepticum S6; S6, 144 h): 1 µg/mL (≈ 2.12 µM)
COC(=O)c1ccc(-c2cnc(/C=C(\C)C[C@@H]3OC[C@H](C[C@@H]4O[C@H]4[C@@H](C)[C@H](C)O)[C@@H](O)[C@H]3O)o2)cc1 [Example 16, 5-p-Methoxycarbonylphenyl-2-(1-normon-2-yl) oxazole A]	> 80 µg/mL	0.5 µg/mL (≈ 0.997 µM)	0.25 µg/mL (≈ 0.498 µM)	4 µg/mL (≈ 7.97 µM)	40 µg/mL (≈ 79.7 µM)	2 µg/mL (≈ 3.99 µM)	2 µg/mL (≈ 3.99 µM)	> 64 µg/mL	80 µg/mL (≈ 159 µM)	40 µg/mL (≈ 79.7 µM)	1.25 µg/mL (≈ 2.49 µM)	0.05 µg/mL (≈ 0.0997 µM)	> 64 µg/mL	1.25 µg/mL (≈ 2.49 µM)	> 80 µg/mL	> 80 µg/mL	0.5 µg/mL (≈ 0.997 µM)	1.25 µg/mL (≈ 2.49 µM)	> 80 µg/mL	0.25 µg/mL (≈ 0.498 µM)	MIC [1, 12]: 0.1 µg/mL (≈ 0.199 µM); MIC (E. coli NCTC 10418 [2]; [11]): > 64 µg/mL; MIC (M. gallisepticum S6; [14]): 2.5 µg/mL (≈ 4.98 µM)
C/C(=C\c1ncc(-c2ccccc2)s1)C[C@@H]1OC[C@H](C[C@@H]2O[C@H]2[C@@H](C)[C@H](C)O)[C@@H](O)[C@H]1O [Example 29, 2-(1-Normon-2-yl)-5-phenylthiazole A]	> 80 µg/mL	10 µg/mL (≈ 21.8 µM)	10 µg/mL (≈ 21.8 µM)	50 µg/mL (≈ 109 µM)	> 80 µg/mL	50 µg/mL (≈ 109 µM)	50 µg/mL (≈ 109 µM)	> 100 µg/mL	> 80 µg/mL	> 80 µg/mL	20 µg/mL (≈ 43.5 µM)	0.5 µg/mL (≈ 1.09 µM)	> 100 µg/mL	10 µg/mL (≈ 21.8 µM)	> 80 µg/mL	> 80 µg/mL	> 10 µg/mL	40 µg/mL (≈ 87 µM)	> 80 µg/mL	10 µg/mL (≈ 21.8 µM)	MIC [1]: 1 µg/mL (≈ 2.18 µM); MIC (E. coli NCTC 10418 [2]; NCTC10418, 18 h): > 100 µg/mL; MIC (M. gallisepticum S6; [14]): > 10 µg/mL
C/C(=C\c1nc(C)c(-c2ccccc2)o1)C[C@@H]1OC[C@H](C[C@@H]2O[C@H]2[C@@H](C)[C@H](C)O)[C@@H](O)[C@H]1O [Example 40, 4-Methyl-2-(1-normon-2-yl)-5-phenyloxazole A]	> 80 µg/mL	> 10 µg/mL	> 10 µg/mL	> 100 µg/mL	80 µg/mL (≈ 175 µM)	50 µg/mL (≈ 109 µM)	50 µg/mL (≈ 109 µM)	> 100 µg/mL	> 80 µg/mL	> 80 µg/mL	> 80 µg/mL	5 µg/mL (≈ 10.9 µM)	> 100 µg/mL	80 µg/mL (≈ 175 µM)	80 µg/mL (≈ 175 µM)	> 80 µg/mL	> 10 µg/mL	> 80 µg/mL	> 80 µg/mL	> 10 µg/mL	MIC [1, 12]: 10 µg/mL (≈ 21.9 µM); MIC (E. coli NCTC 10418 [2]; NCTC10418, 18 h): > 100 µg/mL; MIC (M. gallisepticum S6; [14]): > 10 µg/mL
C/C(=C\c1nc(-c2ccccc2)c(-c2ccccc2)o1)C[C@@H]1OC[C@H](C[C@@H]2O[C@H]2[C@@H](C)[C@H](C)O)[C@@H](O)[C@H]1O [Example 41, 4,5-Diphenyl-2-(1-normon-2-yl)oxazole A]	> 80 µg/mL	> 10 µg/mL	> 10 µg/mL	> 100 µg/mL	40 µg/mL (≈ 77 µM)	25 µg/mL (≈ 48.1 µM)	10 µg/mL (≈ 19.2 µM)	> 100 µg/mL	> 80 µg/mL	> 80 µg/mL	20 µg/mL (≈ 38.5 µM)	2.5 µg/mL (≈ 4.81 µM)	> 100 µg/mL	40 µg/mL (≈ 77 µM)	40 µg/mL (≈ 77 µM)	> 80 µg/mL	> 10 µg/mL	40 µg/mL (≈ 77 µM)	> 80 µg/mL	> 10 µg/mL	MIC [1, 12]: 5 µg/mL (≈ 9.62 µM); MIC (E. coli NCTC 10418 [2]; NCTC10418, 18 h): > 100 µg/mL; MIC (M. gallisepticum S6; [14]): > 10 µg/mL
